Reference: US8609135B2, “Anthracycline derivatives” (Nuclisome AB, priority 2004, dated 2013)
Read-outs that look alike come from different tables or passages of the source.

Key:
[1] = Dissolution of drug in 10% (wt/vol) sucrose solution; type: physicochemical; settings: 0.5 mM in 10% (wt/vol) sucrose solution
Description: Compound 1 (3′-N-(4-hydroxy-3-iodobenzyl)-13-(R/S)-dihydrodaunorubicin, stereoisomeric mixture) and Compound 2 (3′-N-(4-Hydroxy-3-iodobenzyl)daunorubicin), structures are shown below, or doxorubicin (Sigma Aldrich, St. Louis, Mo., USA) were encapsulated into liposomes using the pH-gradient driven loading protocol by Mayer et al. The pH gradient across the liposome membrane was generated by exchanging the extravesicular 300 mM citrate buffer (pH 4) with 20 mM N-[2-hydroxyethyl]piperazine-N′-[2-ethanesulfonic acid] (HEPES) buffered 150 mM saline (HBS) (pH 7.5) on a Sephadex G-50 column. Doxorubicin was dissolved in HBS at a concentration of 1 mM. Compound 1 was dissolved at a concentration of 0.5 mM in 10% (wt/vol) sucrose solution. […] A preheated drug solution was added to the liposomes at a 0.2 drug-to-lipid molar ratio. The mixture was incubated for 15 min at a temperature of 60° C. with intermittent mixing using a Vortex-apparatus resulting in 100% drug encapsulation.

calf thymus DNA (CT DNA) [2] = assay: Fluorescence titration, binding to calf thymus DNA; settings: room temperature, BPES buffer pH 7, n=3
Description: Type 1 calf thymus DNA sodium salt (Sigma-Aldrich Co., St Louis, M.O., USA) was hydrated in BPES buffer (6 mM Na2HPO4, 2 mM NaH2PO4, 1 mM EDTA, 185 mM NaCl, pH 7) at a concentration of approximately 2 mg/ml and sonicated at approximately 8 μA in a MSE Soniprep 150 ultrasonic disintegrator (Integrated Services TCP Inc., Palisades Park, N.J., USA) for 30 min in a water bath on ice. The sample was then dialyzed for 48 h against BPES using Slide-A-Lyzer® dialysis cassettes (10,000 MWCO) (Pierce, Rockford, Ill., USA). The final DNA concentration was determined spectrophotometrically on a HP8453 spectrophotometer (Hewlett-Packard Company Houston Tex., USA) at a wavelength of 260 nm using an extinction coefficient of 12,824 M (bp)^−1 cm^−1.
Fluorescence titration experiments were performed on a SPEX 1680 Fluorolog spectrofluorometer (SPEX Industries Inc., Edison, N.J., USA) at room temperature with λex=480 nm (slid width 2.5 mm) and λem=592 nm (slid width 2.5 mm). The initial free drug concentration was 1 μM. […] The concentration of bound drug was calculated by the difference between CT and Cf. Binding constants (Ki) and exclusion parameters (n) were calculated by plotting r/Cf versus r (Scatchard plot), where r is the number of moles of bound drug per mol DNA base pairs. Theoretical curves for the neighbor exclusion model were calculated by using the algorithm: r/Cf=Ki(1−nr)[(1−nr)/[1−(n−1)r]]^n−1 (J. Mol. Biol. 86, 469-489, 1974)
where Ki (M^−1) is the intrinsic binding constant and n (base pairs) is the exclusion parameter. The parameters Ki and n were varied to generate theoretical curves that closest fitted the experimental data.

[3] = Drug retention in liposomes; type: physicochemical; settings: incubated in medium at 37° C. for 24 h
Description: Liposomes were composed of 1,2-distearoyl-sn-glycero-3-phosphatidyl-choline (DSPC), cholesterol, 1,2-distearoyl-sn-glycero-3-phosphatidyl-ethanolamine-N-[methoxy (poly-ethyleneglycol)-2000 (DSPE-PEG2000) at a molar ratio of 57:40:3. Liposomes were prepared by the lipid film hydration method. Briefly, cholesterol and lipids were dissolved in chloroform. The solvent was evaporated under a gentle stream of nitrogen gas and the lipid film was dried under vacuum overnight. The lipid film was hydrated with 300 mM citrate buffer (pH 4) for 1 h with intermediate vortex mixing at a lipid concentration of 20 mM at a temperature of 60° C. Liposomes were repetitively frozen in liquid nitrogen and thawed at a temperature of 60° C. five times before extrusion. Liposomes were extruded ten times through two stacked polycarbonate membranes filters (Whatman Inc. Nucleopore, Newton, Mass.) with a pore size of 100 nm at a room temperature using an Avanti Mini-extruder (Avanti Polar Lipids Inc., Alabaster, Ala.). […]
Liposomes were incubated at temperatures of 37° C. or 60° C. […] The fluorescence intensity of samples was determined at an excitation wavelength of 468 nm and an emission wavelength of 589 nm. The percentage of encapsulated drug after incubation was determined relative to the amount of encapsulated drug before incubation.

[4] = tested on: human tumour A431 cells (squamous carcinoma); assay: Binding of 125I-Compound 1 to permealised A431 cells (gamma counter, fluorescence microscopy); type: cell-based
Description: Human cultured tumour cells […] were grown as monolayer cultures using Ham's F-10 medium (Biochrom AG, Berlin, Germany) containing 10% fetal calf serum, glutamine (2 mM), streptomycin (100 μg/ml), and penicillin (100 IU/ml) at a temperature of 37° C. in a humidified 5% CO2 incubator.
Cultured human tumour A431 cells (squamous carcinoma) were grown on glass slides, cooled to a temperature of 4° C., and washed with phosphate buffer. Cells were inactivated in methanol for 15 minutes at a temperature of −20° C. and then quickly washed at a temperature of 4° C. with phosphate buffer. Cells were thereafter permealised by acetone treatment for 10 seconds at a temperature of 4° C. After drying cells were incubated with ^125I-Compound 1 at room temperature for one hour, washed, and analyzed for radioactivity using a gamma counter (1480 Wallac Wizard, Perkin Elmer, Wellesley, Mass., USA). In addition, cells were inspected by fluorescence microscopy.

SKBR-3 cells = assay: Growth curves of SKBR-3 cells (toxicity); type: cell-based, human; settings: SKBR-3 cell monolayers, 0.5 ng/ml, 2.5 h incubation
Description: Growth curves^125I-Compound 1, Compound 1, doxorubicin, or daunorubicin were dissolved in culture media to a concentration of 0.5 ng/ml. The specific activity of ^125I-Compound 1 was 100 kBq/ng. SKBR-3 cells were incubated with drug in 60 mm plastic Petri dishes as triplicates, for 2.5 h. Control-cells were incubated with ordinary culture medium. After incubation, the medium was removed from all dishes and cells were washed six times with serum-free medium. Cells were detached from dishes by adding 0.5 ml of trypsin/EDTA for 10 min at a temperature of 37° C. After re-suspension in 1 ml of culture media cells were counted using a coulter counter (Z2 Coulter Counter, Beckman Coulter) and sub-cultivated to 10^5 cells to generate growth curves. Growth curves were corrected for loss of cells at each sub-cultivation.

calf thymus DNA (CT DNA) [5] = settings: literature values; cited from earlier work
[6] = cited from earlier work
[7] = tested on: thyroid cancer, lymphomas, bladder carcinomas, sarcomas, ovarian carcinomas, leukemias; settings: cited from earlier work

## COc1cccc2c1C(=O)c1c(O)c3c(c(O)c1C2=O)C[C@@](O)(C(C)=O)C[C@@H]3O[C@H]1C[C@@H](NCc2ccc(O)c(I)c2)[C@H](O)C(C)O1 (some centres unmarked) [Compound 2, 3′-N-(4-Hydroxy-3-iodobenzyl)daunorubicin]
[1]
  dissolution of drug: did not dissolve completely
Calf thymus DNA (CT DNA) [2]
  n (exclusion parameter): 3.7 base pairs

## COc1cccc2c1C(=O)c1c(O)c3c(c(O)c1C2=O)C[C@@](O)(C(C)O)C[C@@H]3O[C@H]1C[C@@H](NCc2ccc(O)c(I)c2)[C@H](O)C(C)O1 (mixture of isomers) [Compound 1, 3′-N-(4-hydroxy-3-iodobenzyl)-13-(R/S)-dihydrodaunorubicin]
[3]
  drug remaining encapsulated in liposomes: more than 90%
[4]
  localisation in cells by fluorescence microscopy: bound to the cell nucleus and not located inside the cytoplasm
SKBR-3 cells
  cytotoxic effect (growth curves): Neither of the latter compounds had any significant cytotoxic effect
Calf thymus DNA (CT DNA) [2]
  n (exclusion parameter): 3.4 base pairs

## COc1cccc2c1C(=O)c1c(O)c3c(c(O)c1C2=O)C[C@@](O)(C(C)=O)C[C@@H]3O[C@H]1C[C@H](N)[C@H](O)[C@H](C)O1 [daunorubicin, Daunorubicin]
Calf thymus DNA (CT DNA) [5]
  n (exclusion parameter), literature value: 3.5 base pairs
SKBR-3 cells
  cytotoxic effect (growth curves): Neither of the latter compounds had any significant cytotoxic effect
Calf thymus DNA (CT DNA) [2]
  n (exclusion parameter): 3.6 base pairs

## COc1cccc2c1C(=O)c1c(O)c3c(c(O)c1C2=O)C[C@@](O)(C(=O)CO)C[C@@H]3O[C@H]1C[C@H](N)[C@H](O)[C@H](C)O1 [doxorubicin, Doxorubicin]
Calf thymus DNA (CT DNA) [5]
  n (exclusion parameter), literature value: 3.8 base pairs
[3]
  drug remaining encapsulated in liposomes: Approximately 80%
[6]; patients
  cardiac toxicity up to congestive heart failure, share of patients: 1-10%
  side effect alopecia, share of patients: 100%
  side effect nausea and vomiting, share of patients: 20-55%
[6]; treated patients
  acute dose-limiting toxicity: bone-marrow suppression, leukopenia, and stomatitis, share of treated patients: 80%
SKBR-3 cells
  cytotoxic effect (growth curves): Neither of the latter compounds had any significant cytotoxic effect
[7]; bladder carcinomas
  overall response rate: 33%
[7]; leukemias
  overall response rate: 24%
[7]; lymphomas
  overall response rate: 41%
[7]; ovarian carcinomas
  overall response rate: 25%
[7]; sarcomas
  overall response rate: 26%
[7]; thyroid cancer
  overall response rate: 45%
Calf thymus DNA (CT DNA) [2]
  n (exclusion parameter): 3.9 base pairs
